# Measurements taken from ChEMBL document CHEMBL1140670, “Synthesis and evaluation of a phosphonate analogue of the soluble guanylate cyclase activator YC-1” (Bioorg Med Chem Lett, 2007).
# What was measured:
# [1] = Activation of sGC heme complex expressed in Sf9 cells at 150 uM relative to control; settings: Homo sapiens
# [2] = Activation of sGC heme complex expressed in Sf9 cells at 800 uM relative to control; settings: Homo sapiens
# [3] = Activation of sGC heme complex expressed in Sf9 cells at 150 uM in presence of nitric oxide relative to control; settings: Homo sapiens
# [4] = Activation of sGC heme complex expressed in Sf9 cells at 800 uM in presence of nitric oxide relative to control; settings: Homo sapiens
# [5] = Activation of sGC heme complex expressed in Sf9 cells at 150 uM in presence of carbon monoxide relative to control; settings: Homo sapiens
# [6] = Activation of sGC heme complex expressed in Sf9 cells at 800 uM in presence of carbon monoxide relative to control; settings: Homo sapiens
# [7] = Aqueous solubility of the compound; type: physicochemical
SMILES,Activity [1],Activity [2],Activity [3],Activity [4],Activity [5],Activity [6],solubility [7] [µM]
O=P(O)(O)Cc1ccc(-c2nn(Cc3ccccc3)c3ccccc23)o1,5.2,1.4,38,10,16,1.2,> 800
OCc1ccc(-c2nn(Cc3ccccc3)c3ccccc23)o1,6.4,,270,,87,,
